Data published in PMC8533149 (Biomolecules, 2021).

test system: HIV-1 LTR-III G-quadruplex (FAM/TAMRA-labeled LTR-III); assay: FRET melting assay, LTR-III G4; assay type: binding; details: Table S1 primary screening, ligand:ODN 50:1, singlicate
Protocol: To evaluate stabilizing properties of the ligands in a complex with oligodeoxyribonucleotides (ODNs) melting with fluorescence registration was used. ODN (0.5 μM) (Table 1), labeled with 6-carboxyfluorescein (FAM) and 6-carboxytetramethylrhodamine (TAMRA) at the 5′- and 3′-end, respectively, were folded in lithium cacodylate buffer (10 mM, pH 7.4) with 100 mM KCl by heating at 95 °C for 5 min and gradually cooling to r.t. GFP chromophore analogs (5 mM solution in DMSO) were diluted with the same buffer to the final concentration of 25 μM and mixed with an equal volume of 0.5 μM ODN solution resulting in a molar ratio of 50:1 (total volume was 50 μL). For the titration experiments molar ratios of 20:1 and 2:1 were used. Samples were analyzed using DTprime qPCR system (DNA-Technology LLC, Moscow, Russia). Fluorescence was registered by detection of FAM emission at 520 nm upon excitation at 495 nm in the temperature range of 30–95 °C with 1 °C/min gradient. Tm was determined using the instrument software and ΔTm was calculated relative to ODN Tm in a buffer solution containing 0.25% (v/v) DMSO. The primary and secondary screening were carried out in singlicate and triplicate, respectively.

Structure (SMILES)	LTR-III ΔTm [°C]
CN1C(=O)C(=Cc2ccc(O)cc2)N=C1C=Cc1ccccc1 [M 996a]	0.1
COc1ccc(OC)c(C=C2N=C(C=Cc3cc(Br)c(O)c(Br)c3)N(C)C2=O)c1 [N 851A]	1.4
CCOC(=O)CN1C(=O)C(=Cc2cc3c4c(c2)CCCN4CCC3)N=C1C [M 1343]	0
COc1ccc(C(N)=C2N=C(C)N(C)C2=O)cc1 [ZS 99]	-0.2
CC1=NC(=Cc2ccc3cc(N4CCCC4)ccc3c2)C(=O)N1C [N 555.3]	0.7
CC1=NC(=Cc2ccc(C#N)cc2)C(=O)N1C [SA 433]	-0.4
CNC(=O)C(=Cc1ccc(O)c(CO)c1)NC(=O)c1ccccc1 [X 29]	-0.6
CN1C(=O)C(=Cc2ccc(O)cc2)N=C1C=Cc1ccccc1F [ccA 18]	0.1
CN1C(=O)C(=Cc2ccc(O)cc2)N=C1C=Cc1ccc(O)c(Br)c1 [ccA 10]	0.7
COc1ccc(C=C2N=C(Nc3ccc(C#N)cc3)N(C)C2=O)cc1 [SA 179]	0.7
COc1ccc2cc(C(c3ccc(C)cc3)C(c3ccc(C)cc3)c3ccc4cc(OC)ccc4c3)ccc2c1 (stereo not shown) [M 1362.2]	-0.6
COc1ccc(C=C2N=C(C=C(OC(=O)c3ccc(C)cc3)c3ccc(C)cc3)N(C)C2=O)cc1 [SV 18]	0.4
CNC(=O)c1onc(C(=O)OC(C)C)c1-c1ccccc1 [SA 325A]	-0.5
CCOc1cc(C=C2N=C(C)N(C)C2=O)ccc1O [M 2486]	0
CNC(=O)C(=Cc1ccc(Br)cc1)NC(=O)c1ccccc1 [GR 83]	-0.8
CN1C(=O)C(=Cc2ccc(O)cc2)N=C1C=Cc1cc(Br)c(O)c(Br)c1 [ccA 12]	0.2
CC(C)OC(=O)c1noc(C(=O)NCc2ccccc2)c1-c1ccccc1F [SA 331E]	-0.9
CC1=NC(=Cc2ccc3cc(N4CCOCC4)ccc3c2)C(=O)N1C [X 002]	-0.6
O=C1NC(=S)NC1=Cc1ccc(O)cc1 [M 2497]	0

Structure (SMILES)	LTR-III ΔTm [°C]
CNC(=O)c1cc(/C=C2N=C(/C=C/c3cccs3)N(C)C\2=O)ccc1O [ccD 1]	0.7
COc1cc(O)ccc1/C=C/C1=[N+](C)c2ccccc2C1(C)C.[O-][Cl+3]([O-])([O-])[O-] [M 2761a]	0.5
CC1=NC(=C(N)c2ccc(Cl)cc2)C(=O)N1C [ZS 178]	-0.3
COc1ccc(C=C2N=CN(C)C2=O)cc1 [N 599.2]	-0.7
CC1=NC(=Cc2ccc(Br)c([N+](=O)[O-])c2)C(=O)N1C [SV 52.8]	0.6
CC1=NC(=Cc2ccc([N+](=O)[O-])cc2)C(=O)N1C [SA 412]	0
CC1=NC(=Cc2ccncc2)C(=O)N1C [M 1998]	-0.4
Oc1ccc2cc(Br)ccc2c1 [N 576.3]	0
CNc1ccc(C=C2N=C(C)N(C)C2=O)cc1N [M 1165]	0.9
CN1C(=O)/C(=C/c2ccc(O)cc2)N=C1/C=C/c1ccc(O)cc1 [ccA 2]	0.4
CNC(=O)c1cc(C=C2N=C(C=Cc3cc(Br)c(O)c(Br)c3)N(C)C2=O)ccc1O [ccD 2]	0.2
Br.CC1=NC(=Cc2ccc(N(C)C)cc2)C(=O)N1CCN [M 1668]	0.2
COc1cc(O)ccc1/C=C1N=C(/C=C/c2ccccc2)N(C)C\1=O [MID 145]	0.9
COc1cc(/C=C2N=C(/C=C/c3ccncc3)N(C)C\2=O)c(OC)cc1O [N 1048]	1.5
COc1cccc(C=C2N=C(C)N(CCNC(=O)OC(C)(C)C)C2=O)c1 [M 2026f]	-0.4
COc1ccc(-c2c(C(=O)OC(C)C)noc2C(=O)NCc2ccccn2)cc1 [SA 350C]	-0.6
CN1C(=O)C(=Cc2ccncc2)N=C1C=Cc1ccncc1 [N 768]	0.9
CC1=NC(=CC=Cc2ccc(O)cc2)C(=O)N1C [M 1378]	-0.7
